Results on three compounds are retold here after patent publication US5260340A, “Prevention and amelioration of acetaminophen toxicity with beta-carotene” (priority 1992, dated 1993).

Where two headings read alike, the source gives them in different places.

One series has as its system mice. In words: Feeding of mice following IP injection of a lethal dose of acetaminophen. It is filed as in vivo.
The subject of the next series is liver. As to conditions: cited from earlier work.
For series [1] the following is noted: cited from earlier work.
For series [2] the following is noted: cited from earlier work. This is another data set of the same source.
In series [3] the test system is acetaminophen toxicity. In words: Prevention of acetaminophen toxicity, pre-administration of beta-carotene in the diet: survival after IP acetaminophen 800 mg/kg. It is filed as in vivo, 129/ReJ mice. As to conditions: for mice alive seventy-two hours after injection: 800 mg/kg acetaminophen IP; for Survival 72 Hours After Ingestion (%) / Survival 72 Hours After Ingestion, Survivors/Sample: acetaminophen 800 mg/kg IP. The protocol:
(§1) The total amount of beta-carotene consumed by mice in each experiment was computed using the estimates that a 25 gram mouse will consume […] of food and 25 ml/day of water, under normal conditions.
Nine 129/ReJ mice, (The Jackson Laboratory-Bar Harbor, Me.) were pre-fed a diet of Modified HLR 341 with 10 percent of 10% beta-carotene beadlets, 1.6 mg/kg of vitamin K, and 4,000 IU/kg of vitamin A (Dyets, Inc.--Bethlehem, Pa.) for a period of five months. Each mouse ingested about 7.5 grams of beta-carotene.
Each mouse then received an intraperitoneal (IP) injection of 800 mg/kg of acetaminophen (Fisher Scientific-Pittsburgh, Pa.) dissolved in 20% Tween 80 (Sigma Chemical Company -- St. Louis, Mo.) in saline. […]

Series [4] concerns acetaminophen toxicity. Briefly: Prevention of acetaminophen toxicity, simultaneous administration (Example 5): survival. Type of series: in vivo, DBA/2J mice. The conditions noted are these: about 20 mg total beta-carotene per mouse by hour 24; 1% acetaminophen in water, 500 mg/kg IP at hours 24 and 30. The protocol:
as §1
Four DBA/2J mice (The Jackson Laboratory) were weighed. Food was removed, and the mice were given drinking bottles containing a one percent aqueous solution of acetaminophen (Fisher Scientific) and 60 mg of beta-carotene per 100 ml ("Twinlab"--Twin Laboratories--Ronkonkoma, N.Y.). After twenty-two hours, the mice were given a Modified HLR 341 diet having 10 percent of 10% beta-carotene beadlets, 10% safflower oil food pellets, 6% lard, 1.6 mg/kg of vitamin K, and 4000 IU/kg of vitamin A (Dyets, Inc.). Each mouse ingested about 20 mg total beta-carotene from the water and food by the twenty-fourth hour.
At the twenty-fourth and thirtieth hours, all of the mice received an IP injection of 500 mg/kg of acetaminophen dissolved in 20% Tween 80 (Sigma Chemical Co.) in saline. At the forty-eighth hour, all of the mice were weighed, and the drinking bottles were filled with pure water.

The test system of series [5] is acetaminophen toxicity. Briefly: Prevention of acetaminophen toxicity, simultaneous administration (Example 6): survival and body weight. It is filed as in vivo, 129ReJ mice. As to conditions: beta-carotene diet. The protocol:
as §1
Ten 129ReJ mice (The Jackson Laboratory) were starved for twelve hours during which time they lost 4% of their original weight. The mice were then given drinking bottles containing a 0.1% aqueous solution of acetaminophen (Fisher Scientific). The mice were given a Modified HLR 341 diet with 10 percent of 10% beta-carotene beadlets, 10% safflower oil, 6% lard, 1.6 mg/kg of vitamin K, and 4000 IU/kg of vitamin A (Dyets, Inc.). The food regimen was continued throughout the remainder of the experiment.
At the sixtieth hour, all of the mice received an IP injection of 300 mg/kg of acetaminophen, and the drinking bottles were filled with pure water.

Series [6] has as its system acetaminophen toxicity. Briefly: Antidotal treatment of acetaminophen toxicity (Example 7): survival and weight restoration. It is filed as in vivo, 129/ReJ mice. The protocol: as §1
(§2) The design of this experiment was predicated on the clinical time sequence involved in, or associated with, acetaminophen overdose and toxicity, and the biological response of mice to lethal injections of this drug. When a human ingests a toxic, potentially lethal dose of acetaminophen, few if any, clinical signs manifest during the first forty-eight hours. The patient remains alert and can take food voluntarily or by a nasal gastric tube. […] Because the time course of human toxicity implies that a patient could orally ingest an antidote such as beta-carotene within the forty-eight hour period immediately following an overdose, it was proposed that a comparative animal model would be feeding subjects with a beta-carotene diet for forty-eight hours prior to the administration of a known lethal dose of acetaminophen.
Eight 129/ReJ mice (The Jackson Laboratory) were wholly or partially starved for seventy-two hours to enhance their appetite. Mean weight loss during this period was 13%. […] Each mouse ingested about 0.1 gram of beta-carotene by the forty-eighth hour. […]

Series [7] has as its system acetaminophen toxicity. In words: Antidotal treatment of acetaminophen toxicity (Example 8): survival and weight regain. It is filed as in vivo, DBA/2J mice. The protocol: as §1, §2
Twelve DBA/2J mice (The Jackson Laboratory) were weighed and starved for seventy-two hours. The mean weight loss during this time was 27%. The mice received a Modified HLR 341 diet with 10 percent of 10% beta-carotene beadlets, 10% safflower oil, 6% lard, 1.6 mg/kg of vitamin K, and […] of vitamin A (Dyets, Inc.). The mice regained 86% of their original weight. Each mouse ingested about 0.1 gram of beta-carotene by the forty-eighth hour.
After forty-eight hours on the experimental diet, the mice received an IP injection of 800 mg/kg of acetaminophen (Fisher Scientific) dissolved in 20% Tween 80 (Sigma Chemical Co.) in saline.
The mice were reweighed, and a second injection of 600 mg/kg of acetaminophen dissolved in 20% Tween 80 in saline was given to each mouse. By seventy hours after the first injection, 92% of the mice were alive.

The test system of series [8] is aflatoxin-induced liver toxicity. As to conditions: chickens; simultaneous administration; cited from earlier work.
In series [9] the test system is toxic side effects of antibiotics. As to conditions: plants; cited from earlier work.
Another series relates to toxicity due to aspirin. As to conditions: in vivo; cited from earlier work.
Another series has as its system cytochrome P450. The conditions noted are these: fourteen days of dietary beta-carotene supplement; mouse liver homogenates; cited from earlier work.
For series [10], the system named is Kupffer cells of the liver. As to conditions: in vivo; cited from earlier work.
The conditions of series [11]: human; not yet determined; cited from earlier work.
The conditions of series [12]: mammals; cited from earlier work.
The subject of series [13] is duodenal ulcers and stress ulcers. As to conditions: rats fed 3-, 4-diaminotoluene; cited from earlier work.
Setting [14] is: acetaminophen in water, 600 mg/kg IP after hour 48 and 300 mg/kg IP at hour 60.
[15] abbreviates: forty-eight hours on beta-carotene diet after starvation, before acetaminophen.

For the compound `CC(=O)Nc1ccc(O)cc1` [acetaminophen], in the series on mice, the “feeding following IP injection of a lethal dose” value is listed as “cease to feed”. For the same compound, in the series with liver (acute acetaminophen toxicity), the “time of hepatic failure after ingestion” value is listed as “three to five”. Also, the “ingestion at which mortality is significantly higher” value in the series with liver (acute ingestion) is on record as “exceeds 25 grams”. The results for the toxic dosage entry in the series on liver (adult) and with liver (child) were “greater than 10 grams” and ≥ 140 milligrams per kilogram, respectively. Besides, the “dosage that has resulted in chronic liver disease” value with liver (long term dosages, as low as) is recorded as “three”. Besides, the half-life result is on record as “about 21/2” in [1] (normal dosages, normal patient) and “over 4 hours” in [1] (severe hepatocellular injury). In series [2], the solubility in water entry is “soluble in water”.

For `CC1=C(/C=C/C(C)=C/C=C/C(C)=C/C=C/C=C(C)/C=C/C=C(C)/C=C/C2=C(C)CCCC2(C)C)C(C)(C)CCC1` [beta-carotene], the “survival rate compared with Comparative Examples 1A*-4A*” value in the series with acetaminophen toxicity [3] (administration before challenge with toxic amounts of acetaminophen) is reported as “increases the survival rate significantly”. For the same compound, the “mice alive seventy-two hours after injection” value is “all mice were alive” in the series with acetaminophen toxicity [3] (nine mice, pre-fed five months (about 7.5 grams beta-carotene)); “five of the mice were alive” in the series on acetaminophen toxicity [3] (nineteen mice, pre-fed seven days (about 0.35 grams beta-carotene)); “thirteen of the mice were alive” with acetaminophen toxicity [3] (twenty mice, pre-fed five weeks (about 1.75 grams beta-carotene)); “twenty of the mice were alive” in the series with acetaminophen toxicity [3] (twenty mice, pre-fed twenty-three days (about 1.15 grams beta-carotene)); 63% in the series with acetaminophen toxicity [6] (beta-carotene diet for forty-eight hours (about 0.1 gram per mouse), 800 mg/kg acetaminophen IP). For the same compound, the “Survival 72 Hours After Ingestion (%)” value is 100% in the series on acetaminophen toxicity [3] (pre-feeding 5 Months), 65% in the series on acetaminophen toxicity [3] (pre-feeding 5 Weeks), 26% in the series on acetaminophen toxicity [3] (pre-feeding 7 Days) and 100% with acetaminophen toxicity [3] (pre-feeding 23 Days). Also, the “Survival 72 Hours After Ingestion, Survivors/Sample” value in the series with acetaminophen toxicity [3] (pre-feeding 5 Months) was 9/9; in the series with acetaminophen toxicity [3] (pre-feeding 5 Weeks), 13/20; in the series on acetaminophen toxicity [3] (pre-feeding 7 Days), 5/19; with acetaminophen toxicity [3] (pre-feeding 23 Days) it was 20/20. The “mice alive by the seventy-second hour” value in the series with acetaminophen toxicity [4] was 75%. Also, in the series on acetaminophen toxicity [5] (0.1% aqueous acetaminophen), the “body weight after twenty-four hours” value is given as “regained or increased their original weight”. The “body weight after the forty-eighth hour” value in the series with acetaminophen toxicity [5] (0.5% aqueous acetaminophen) was “maintenance of the mice's original weight”. For the same compound, the “animals alive at the seventy-second hour” value in the series on acetaminophen toxicity [5] (setting [14]) is recorded as “all of the animals were alive”. In addition, in the series with acetaminophen toxicity [5] (setting [14]), the “mice alive at the one hundred fiftieth hour” value is reported as 90%. Moreover, the “body weight, of original weights, at the one hundred fiftieth hour” value with acetaminophen toxicity [5] (acetaminophen in water, 600 and 300 mg/kg IP) was found to be 93%. In the series with acetaminophen toxicity [6] (setting [15]), the “restoration of original weight” value is reported as 98%. The “mice alive by seventy hours after the first injection” value with acetaminophen toxicity [7] (about 0.1 gram beta-carotene, acetaminophen 800 mg/kg IP then 600 mg/kg) was found to be 92%. Besides, the “regain of original weight” value with acetaminophen toxicity [7] (setting [15]) was determined as 86%. Also, in the series with acetaminophen toxicity [7] (twelve mice, about 0.1 gram beta-carotene, 800 mg/kg acetaminophen IP), the “mice that had died by thirty-six hours after the injection” value is “one mouse had died”. For the same compound, the aflatoxin-induced liver toxicity entry in [8] is listed as “reduction of aflatoxin-induced liver toxicity”. The “toxic side effects of antibiotics” value in series [9] is “prevent the toxic side effects of antibiotics”. For the same compound, the “adverse side effects and toxicity due to aspirin” value with toxicity due to aspirin was “reduced adverse side effects and toxicity due to aspirin”. Further, the “cytochrome P450” value with cytochrome P450 is “reduced cytochrome P450”. In addition, the “deposition in liver cells” value in series [10] was “deposited in, and remains sequestered in, only the Kupffer cells of the liver”. The “safe upper limit (believed)” value in [11] is given as “at least 1,000 mg/day”. In addition, in [12], the “oxidative cleavage at the central double bond” value was “readily undergoes oxidative cleavage at the central double bond”.

In the case of vitamin A, the “adverse side effects and toxicity due to aspirin” value with toxicity due to aspirin was “reduced adverse side effects and toxicity due to aspirin”. Further, the “duodenal ulcers and stress ulcers” value in series [13] is “could prevent duodenal ulcers and stress ulcers”.
